Measurements published in EP0745595A1, “3-(3-Aryloxyphenyl)-1-(substituted methyl)-s-triazine-2,4,6-oxo or thiotrione herbicidal agents” (American Cyanamid Company, priority 1995, dated 1996).

Assays:
Type in all cases: in vivo
[1] = test system: ABUTILON THEOPHRASTI, MEDIC.; assay: Postemergence herbicidal evaluation, ABUTH (Velvetleaf); settings: for ABUTH, herbicide rating (0-9): rated four to five weeks after treatment, averaged
Summary of the method: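 This postemergence herbicide test used two-week-old velvetleaf seedlings grown in jiffy flats. Each compound was sprayed at 40 psi as a dispersion in 50/50 acetone/water with 0.5% TWEEN®20 surfactant. Plants then received routine greenhouse care. After four to five weeks, injury was scored visually on a 0-9 scale against a control, and replicate tests were averaged.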

[2] = test system: AMBROSIA ARTEMISIIFOLIA, L.; assay: Postemergence herbicidal evaluation, AMBEL (Ragweed, Common); settings: for AMBEL, herbicide rating (0-9): rated four to five weeks after treatment, averaged
Summary of the method: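 Postemergence herbicidal activity on AMBEL (common ragweed) was assessed on two-week-old seedlings grown in jiffy flats. Treatment solutions of 50/50 acetone/water with 0.5% TWEEN®20 surfactant were sprayed at 40 psi. After four to five weeks in the greenhouse, plants were scored 0-9 against a control for stand, vigor, malformation, size, chlorosis and overall appearance, with multiple tests averaged.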

CASSIA OBTUSIFOLIA, L. = assay: Postemergence herbicidal evaluation, CASOB (Sicklepod); set-up: key to CASOB rating / Herbicidal effect rating, CASOB / CASOB: 0-9 visual rating scale vs untreated control; settings: for CASOB, herbicide rating (0-9): rated four to five weeks after treatment, averaged
Summary of the method: (§1)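 Spray: acetone/water 50/50 + 0.5% TWEEN 20; rate ~0.125–0.500 kg/ha; nozzle 40 psi; ~2-wk seedlings. Read: visual 0–9 rating at 4–5 wk post-treatment vs control; replicate tests averaged.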

CHENOPODIUM ALBUM, L. [3] = assay: Postemergence herbicidal evaluation, CHEAL (Lambsquarters, Common)
Summary of the method: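 Postemergence herbicidal activity on Chenopodium album was tested by spraying two-week-old seedlings grown in jiffy flats with compound in acetone/water (50/50) plus 0.5% TWEEN®20, using a 40 psi nozzle. Four to five weeks after treatment, stand, vigor, malformation, size, chlorosis and overall appearance were scored 0-9 relative to controls, with repeat tests averaged.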

IPOMOEA SPP. = assay: Postemergence herbicidal evaluation, IPOSS (Morningglory spp.); settings: for IPOSS, herbicide rating (0-9): rated four to five weeks after treatment, averaged
Summary of the method: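 In this greenhouse postemergence herbicide test on Ipomoea spp. (morningglory), compounds in 50/50 acetone/water with 0.5% TWEEN®20 were sprayed at 40 psi onto seedlings about two weeks old grown in jiffy flats. After four to five weeks, injury was scored on a 0-9 scale covering stand, vigor, malformation, size, chlorosis and overall appearance versus control, with repeat tests averaged.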

GALIUM APARINE = assay: Postemergence herbicidal evaluation, GALAP (Galium); set-up: key to GALAP rating / Herbicidal effect rating, GALAP / GALAP: 0-9 visual rating scale vs untreated control; settings: for GALAP, herbicide rating (0-9): rated four to five weeks after treatment, averaged
Summary of the method: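 In this postemergence greenhouse test, two-week-old Galium aparine seedlings grown in jiffy flats received a 40 psi spray of compound in acetone/water (50/50) with 0.5% TWEEN®20 surfactant. After four to five weeks, stand, vigor, malformation, size, chlorosis and overall appearance were compared with untreated controls on a 0-9 scale, averaging multiple tests.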

[4] = test system: ECHINOCHLOA CRUS-GALLI, (L) BEAU; assay: Postemergence herbicidal evaluation, ECHCG (Barnyardgrass); set-up: key to ECHCG rating / Herbicidal effect rating, ECHCG / ECHCG: 0-9 visual rating scale vs untreated control
Summary of the method: as §1

[5] = test system: SETARIA VIRIDIS, (L) BEAU; assay: Postemergence herbicidal evaluation, SETVI (Foxtail, Green); set-up: key to SETVI rating / Herbicidal effect rating, SETVI / SETVI: 0-9 visual rating scale vs untreated control
Summary of the method: as §1

[6] = test system: TRITICUM AESTIVUM, CV. APOLLO; assay: Postemergence herbicidal evaluation, TRZAWO (Wheat, Winter, CV. APOLLO); settings: for TRZAWO, herbicide rating (0-9): crop, rated four to five weeks after treatment, averaged
Summary of the method: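 This greenhouse postemergence test applied compounds to roughly two-week-old wheat seedlings grown in jiffy flats. The spray solution was 50/50 acetone/water with 0.5% TWEEN®20, a polyoxyethylene sorbitan monolaurate, sprayed from a nozzle run at 40 psi. After four to five weeks of standard greenhouse care, injury was scored from 0 to 9 by comparing stand, vigor, malformation, size, chlorosis and overall appearance with a control. Multiple tests were averaged.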

CHENOPODIUM ALBUM, L. [7] = assay: Preemergence herbicidal evaluation, CHEAL (Lambsquarters, Common); settings: for CHEAL herbicidal rating: rated four to five weeks after treatment
Summary of the method: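 Injury scored visually (0–9; stand, vigor, malformation, size, chlorosis) versus untreated control, four to five weeks post-treatment. Application: aqueous acetone spray onto freshly planted soil cups, equivalent to about 0.125 to 0.50 kg/ha, plants then kept under standard greenhouse care.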

[8] = test system: ORYZA SATIVA, L. TEBONNET; assay: Rice tolerance to post-transplant applications under flooded paddy conditions, ORYSAT (Rice, Tebonnet); settings: for Herbicidal effect rating, ORYSAT: post-transplant rice, 3-4 weeks after treatment; for ORYSAT: post-transplanted rice
Summary of the method: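 Rated on a visual 0–9 scale against untreated plants 3–4 weeks after application, rice (cv. Tebonnet) tolerance was tested by applying compounds (approx. 0.5–0.063 kg/ha, acetone/water 50/50) to flooded soil three days post-transplant, water kept 1.5–3 cm deep.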

COC(=O)Cn1c(=O)n(C)c(=O)n(-c2cc(Oc3c(F)cc(C(F)(F)F)cc3Cl)ccc2[N+](=O)[O-])c1=O [Compound 16, Methyl 3-{5-[(2-chloro-α,α,α,6-tetrafluoro-p-tolyl)oxy]-2-nitrophenyl}tetrahydro-5-methyl-2,4,6-trioxo-s-triazine-1(2H)-acetate]
3.0: CHEAL (CHENOPODIUM ALBUM, L. [3]; Rate 0.031 kg/ha) | ORYSAT ([8]; Rate 0.031 kg/ha)
1.5: CHEAL (CHENOPODIUM ALBUM, L. [3]; Rate 0.016 kg/ha)
0.5: ECHCG ([4]; Rate 0.016 kg/ha)
8.7: CASOB (CASSIA OBTUSIFOLIA, L.; Rate 0.016 kg/ha)
8.0: ABUTH ([1]; Rate 0.031 kg/ha) | GALAP (GALIUM APARINE; Rate 0.031 kg/ha)
4.5: GALAP (GALIUM APARINE; Rate 0.008 kg/ha) | TRZAWO ([6]; Rate 0.008 kg/ha)
9.0: ABUTH ([1]; Rate 0.125 kg/ha) | ABUTH, herbicide rating (0-9) ([1]; Rate 0.125 kg/ha) | ABUTH, herbicide rating (0-9) ([1]; Rate 0.250 kg/ha) | ABUTH, herbicide rating (0-9) ([1]; Rate 0.500 kg/ha) | AMBEL ([2]; Rate 0.016 kg/ha) | AMBEL ([2]; Rate 0.031 kg/ha) | AMBEL ([2]; Rate 0.063 kg/ha) | AMBEL ([2]; Rate 0.125 kg/ha) | AMBEL, herbicide rating (0-9) ([2]; Rate 0.125 kg/ha) | AMBEL, herbicide rating (0-9) ([2]; Rate 0.250 kg/ha) | AMBEL, herbicide rating (0-9) ([2]; Rate 0.500 kg/ha) | CASOB (CASSIA OBTUSIFOLIA, L.; Rate 0.031 kg/ha) | CASOB (CASSIA OBTUSIFOLIA, L.; Rate 0.125 kg/ha) | CASOB, herbicide rating (0-9) (CASSIA OBTUSIFOLIA, L.; Rate 0.125 kg/ha) | CASOB, herbicide rating (0-9) (CASSIA OBTUSIFOLIA, L.; Rate 0.250 kg/ha) | CASOB, herbicide rating (0-9) (CASSIA OBTUSIFOLIA, L.; Rate 0.500 kg/ha) | IPOSS (IPOMOEA SPP.; Rate 0.125 kg/ha) | IPOSS, herbicide rating (0-9) (IPOMOEA SPP.; Rate 0.125 kg/ha) | IPOSS, herbicide rating (0-9) (IPOMOEA SPP.; Rate 0.250 kg/ha) | IPOSS, herbicide rating (0-9) (IPOMOEA SPP.; Rate 0.500 kg/ha) | GALAP (GALIUM APARINE; Rate 0.063 kg/ha) | GALAP (GALIUM APARINE; Rate 0.125 kg/ha) | GALAP, herbicide rating (0-9) (GALIUM APARINE; Rate 0.125 kg/ha) | GALAP, herbicide rating (0-9) (GALIUM APARINE; Rate 0.250 kg/ha) | GALAP, herbicide rating (0-9) (GALIUM APARINE; Rate 0.500 kg/ha) | CHEAL (CHENOPODIUM ALBUM, L. [7]; Rate 0.031 kg/ha) | CHEAL (CHENOPODIUM ALBUM, L. [7]; Rate 0.063 kg/ha) | CHEAL (CHENOPODIUM ALBUM, L. [7]; Rate 0.125 kg/ha) | CHEAL herbicidal rating (CHENOPODIUM ALBUM, L. [7]; Rate 0.125 kg/ha) | CHEAL (CHENOPODIUM ALBUM, L. [7]; Rate 0.250 kg/ha) | CHEAL herbicidal rating (CHENOPODIUM ALBUM, L. [7]; Rate 0.250 kg/ha) | CHEAL herbicidal rating (CHENOPODIUM ALBUM, L. [7]; Rate 0.500 kg/ha)
7.0: AMBEL ([2]; Rate 0.008 kg/ha) | IPOSS (IPOMOEA SPP.; Rate 0.016 kg/ha) | IPOSS (IPOMOEA SPP.; Rate 0.031 kg/ha) | Herbicidal effect rating, ORYSAT ([8]; 0.250 kg/ha) | ORYSAT ([8]; Rate 0.250 kg/ha)
6.4: TRZAWO ([6]; Rate 0.031 kg/ha)
5.5: ABUTH ([1]; Rate 0.008 kg/ha) | CASOB (CASSIA OBTUSIFOLIA, L.; Rate 0.008 kg/ha)
3.5: Herbicidal effect rating, ORYSAT ([8]; 0.063 kg/ha) | ORYSAT ([8]; Rate 0.063 kg/ha)
5.0: Herbicidal effect rating, ORYSAT ([8]; 0.125 kg/ha) | ORYSAT ([8]; Rate 0.125 kg/ha)
6.5: CHEAL (CHENOPODIUM ALBUM, L. [3]; Rate 0.125 kg/ha)
8.3: ABUTH ([1]; Rate 0.016 kg/ha) | ABUTH ([1]; Rate 0.063 kg/ha) | CASOB (CASSIA OBTUSIFOLIA, L.; Rate 0.063 kg/ha) | IPOSS (IPOMOEA SPP.; Rate 0.063 kg/ha)
6.0: IPOSS (IPOMOEA SPP.; Rate 0.008 kg/ha) | GALAP (GALIUM APARINE; Rate 0.016 kg/ha) | Herbicidal effect rating, ORYSAT ([8]; 0.500 kg/ha)
0.8: SETVI ([5]; Rate 0.063 kg/ha)
0.7: ECHCG ([4]; Rate 0.031 kg/ha)
1.7: ECHCG ([4]; Rate 0.063 kg/ha)
3.7: CHEAL (CHENOPODIUM ALBUM, L. [3]; Rate 0.063 kg/ha) | ECHCG ([4]; Rate 0.125 kg/ha)
0.0: CHEAL (CHENOPODIUM ALBUM, L. [3]; Rate 0.008 kg/ha) | ECHCG ([4]; Rate 0.008 kg/ha) | SETVI ([5]; Rate 0.008 kg/ha) | SETVI ([5]; Rate 0.016 kg/ha) | SETVI ([5]; Rate 0.031 kg/ha)
8.4: TRZAWO ([6]; Rate 0.125 kg/ha) | TRZAWO, herbicide rating (0-9) ([6]; Rate 0.125 kg/ha) | TRZAWO, herbicide rating (0-9) ([6]; Rate 0.250 kg/ha) | TRZAWO, herbicide rating (0-9) ([6]; Rate 0.500 kg/ha)
4.7: TRZAWO ([6]; Rate 0.016 kg/ha)
1.3: SETVI ([5]; Rate 0.125 kg/ha)
7.4: TRZAWO ([6]; Rate 0.063 kg/ha)

COC(=O)Cn1c(=O)n(C)c(=O)n(-c2cc(Oc3ccccn3)ccc2[N+](=O)[O-])c1=O [Compound 38, Methyl tetrahydro-3-methyl-5-[2-nitro-5-(2-pyridyloxy)phenyl]-2,4,6-trioxo-s-triazine-1(2H)-acetate]
0.0: ABUTH rating ([1]; Rate 0.500 kg/ha) | AMBEL rating ([2]; Rate 0.500 kg/ha) | CASOB rating (CASSIA OBTUSIFOLIA, L.; Rate 0.500 kg/ha) | CHEAL rating (CHENOPODIUM ALBUM, L. [3]; Rate 0.500 kg/ha) | IPOSS rating (IPOMOEA SPP.; Rate 0.500 kg/ha) | GALAP rating (GALIUM APARINE; Rate 0.500 kg/ha) | ECHCG rating ([4]; Rate 0.500 kg/ha) | SETVI rating ([5]; Rate 0.500 kg/ha) | TRZAWO rating ([6]; Rate 0.500 kg/ha) | CHEAL herbicidal rating (CHENOPODIUM ALBUM, L. [7]; Rate 0.500 kg/ha) | Herbicidal effect rating, ORYSAT ([8]; 0.500 kg/ha)
